From patent publication US9018263B2, “Antimicrobial compositions comprising trimethylene glycol oligomer and methods of using the compositions” (E I du Pont de Nemours and Company, priority 2010, dated 2015)

Experiments:
[1] = test system: Staphylococcus aureus ATCC 6538; test: Example 4: di(1,3-propanediol) and DPG, plate counts; type: cell-based; settings: for CFU/mL: S. aureus inoculum; for effect on gram positive bacteria (in words): S. aureus
Procedure: [The source words this procedure for another target and reports this target under the same test.] (§1) Two test microorganisms were used, the Gram-negative bacterium, Escherichia coli ATCC 8739, and the Gram-positive bacterium, Staphylococcus aureus ATCC 6538. These microrganisms were grown overnight in 10 mL Tryptic soy broth (TSB) starter cultures, and then inoculated into Klett flasks containing 30 mL of TSB. The Klett flasks were incubated on an incubator shaker at 37° C. until the desired Klett reading was obtained (early stationary phase). Each test inoculum was prepared by adding 0.1 mL of the Klett flask culture to 9.9 mL of Mueller-Hinton II Broth (cation-adjusted) or M9 Broth.
(§2) The unfractionated mixture, each fraction, a control, and DPG (comparative example) were analyzed for antibacterial or bacteristatic properties against E. coli according to the protocol shown below. Numbers in exponential format are indicated with “E”, i.e. 2.2×10^+9 are written as 2.2E+09.

[2] = test system: Escherichia coli ATCC 8739; test: as above; type: cell-based; settings: for CFU/mL: E. coli inoculum
Procedure: as §1, §2

| Compound | CFU/mL ([1]; Conc. 0.1%) | CFU/mL ([1]; Conc. 0.5%) | CFU/mL ([1]; Conc. 1%) | effect on gram positive bacteria (in words) ([1]; concentrations of 0.5% and 1%) | CFU/mL ([2]; Conc. 0.1%) | CFU/mL ([2]; Conc. 0.5%) | CFU/mL ([2]; Conc. 1%) | effect on gram negative bacteria (in words) ([2]; E. coli, concentrations of 0.5% and 1%) | CFU/mL ([1]; Conc. 10%) | effect on gram positive bacteria (in words) ([1]; 0.1 to 10%) | CFU/mL ([2]; Conc. 10%) |
| --- | --- | --- | --- | --- | --- | --- | --- | --- | --- | --- | --- |
| OCCCOCCCO [PDO Dimer, di(1,3-propanediol)] | 2.7E+07 CFU/mL | 1.4E+04 CFU/mL | 1.6E+03 CFU/mL | kills or inhibits the growth | 3.2E+08 CFU/mL | 7.6E+02 CFU/mL | <10 CFU/mL | kills or inhibits the growth | – | – | – |
| 1,2-dipropaneglycol [DPG] | 2.0E+07 CFU/mL | 2.0E+07 CFU/mL | 2.0E+07 CFU/mL | – | 2.1E+08 CFU/mL | 2.9E+08 CFU/mL | 3.7E+08 CFU/mL | – | 2.1E+07 CFU/mL | little or no antibacterial or bacteristatic effect | 1.5E+05 CFU/mL |
